This note sets out measurements from PubChem BioAssay (NCI).

Some test systems named below: NCI-H23 lung; SF-539 CNS; UACC-62 melanoma; KM12 colon; SF-268 CNS; OVCAR-3 ovarian; TK-10 renal; OVCAR-4 ovarian; MALME-3M melanoma; CAKI-1 renal.
Experiment in all cases: growth of human tumour cells (NCI), 48 h

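These data come from cells grown in 96-well plates and exposed to compound for 48 hours at five concentrations. GI50 is the concentration that inhibits growth by half. TGI is the concentration that stops growth completely.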

Take `Cc1cc(NS(=O)(=O)c2ccc(NC(=O)COc3ccc(-c4cc5ccccc5[nH]4)cc3)cc2)no1`: the GI50 in the test with NCI-H23 lung was 1.91 µM; in the test on SF-539 CNS it was 1.98 µM; in the test with UACC-62 melanoma, 1.53 µM; with KM12 colon, 1.51 µM; in the test with SF-268 CNS, 2.33 µM; in the test with OVCAR-3 ovarian, 1.72 µM. The GI50 is 2.04 µM in the test with TK-10 renal, 1.53 µM with OVCAR-4 ovarian, 1.5 µM in the test on MALME-3M melanoma and 2.57 µM in the test on CAKI-1 renal. In addition, the TGI with NCI-H23 lung was 5 µM; with SF-539 CNS it was 4.61 µM; with UACC-62 melanoma it was 3.26 µM; in the test with KM12 colon it was 3.24 µM; in the test on SF-268 CNS, 7.74 µM; in the test with OVCAR-3 ovarian, 3.75 µM. Besides, the TGI was determined as 5.45 µM with TK-10 renal, 3.98 µM with OVCAR-4 ovarian, 3.85 µM with MALME-3M melanoma and 9.28 µM in the test on CAKI-1 renal.

For the compound `C[C@@H](Oc1cc(-c2cnn(C3CC4(CNC4)C3)c2)cnc1N)c1c(Cl)ccc(F)c1Cl`, the GI50 was 1.97 µM in the test on NCI-H23 lung; 2.51 µM in the test on SF-539 CNS; 3.64 µM with UACC-62 melanoma; 0.111 µM in the test with KM12 colon; 4.19 µM in the test on SF-268 CNS; 9.94 µM in the test on OVCAR-3 ovarian. For the same compound, the GI50 was 10.3 µM in the test on TK-10 renal, 9.15 µM with OVCAR-4 ovarian, 1.53 µM with MALME-3M melanoma and 7.58 µM with CAKI-1 renal. In addition, the TGI with NCI-H23 lung is 16 µM; in the test with SF-539 CNS it was 7.89 µM; with UACC-62 melanoma, 13.8 µM; with KM12 colon it was 7.42 µM; in the test on SF-268 CNS it was 18.2 µM; with OVCAR-3 ovarian, 22.1 µM. The TGI came to 22.5 µM in the test with TK-10 renal, 22.7 µM in the test with OVCAR-4 ovarian, 3.89 µM with MALME-3M melanoma and 21.4 µM with CAKI-1 renal.

`O=C(O)CN(CC(=O)O)c1ccccc1`: the TGI with NCI-H23 lung, with SF-539 CNS, in the test on UACC-62 melanoma, in the test on KM12 colon, in the test on SF-268 CNS and with OVCAR-3 ovarian was greater than 100 µM throughout. The TGI in the test with TK-10 renal, in the test with OVCAR-4 ovarian, in the test with MALME-3M melanoma and in the test on CAKI-1 renal was greater than 100 µM throughout.

As for `CCc1ccc(Oc2nccc(-c3c(-c4ccc(F)cc4)ncn3C3CCNCC3)n2)cc1`, the GI50 was 10.7 µM with NCI-H23 lung; 4.79 µM in the test with SF-539 CNS; 4.6 µM in the test with UACC-62 melanoma; 6.01 µM in the test with KM12 colon; 6.76 µM with SF-268 CNS; 10.5 µM in the test with OVCAR-3 ovarian. Also, the GI50 in the test with TK-10 renal was 4.24 µM; with OVCAR-4 ovarian it was 5.02 µM; in the test on MALME-3M melanoma, 4.62 µM; in the test with CAKI-1 renal, 5.5 µM. In addition, the TGI in the test with NCI-H23 lung was 15.1 µM; in the test with SF-539 CNS, 9.57 µM; in the test with UACC-62 melanoma it was 9.08 µM; in the test on KM12 colon, 14.3 µM; with SF-268 CNS, 15.4 µM; in the test on OVCAR-3 ovarian it was 14.5 µM. Also, the TGI with TK-10 renal came out at 7.93 µM; in the test on OVCAR-4 ovarian, 13 µM; in the test with MALME-3M melanoma, 9.13 µM; in the test on CAKI-1 renal it was 14.6 µM.

For the compound `CCOC(=O)c1c(C(F)(F)F)n([O-])c2ccc(Cl)cc2[n+]1=O`, the GI50 in the test with NCI-H23 lung is 1.71 µM; in the test on SF-539 CNS, 1.74 µM; in the test on UACC-62 melanoma, 1.72 µM; with KM12 colon, 2.07 µM; with SF-268 CNS, 2.02 µM; with OVCAR-3 ovarian it was 2.11 µM. Also, the GI50 was 1.6 µM in the test on TK-10 renal, 2.16 µM with OVCAR-4 ovarian, 1.73 µM with MALME-3M melanoma and 1.35 µM in the test with CAKI-1 renal. Besides, the TGI with NCI-H23 lung is 3.43 µM; with SF-539 CNS it was 3.21 µM; with UACC-62 melanoma, 3.71 µM; with KM12 colon, 3.8 µM; in the test with SF-268 CNS, 3.95 µM; with OVCAR-3 ovarian it was 3.93 µM. In addition, the TGI was found to be 3.23 µM with TK-10 renal, 5.73 µM in the test on OVCAR-4 ovarian, 3.42 µM with MALME-3M melanoma and 2.87 µM in the test with CAKI-1 renal.

On to `O=C1NC(=O)C(N2CCc3ccccc32)=C1c1ccc(Cl)cc1`, for which the GI50 with NCI-H23 lung is greater than 11.4 µM; in the test with SF-539 CNS it was greater than 25 µM; in the test with UACC-62 melanoma, 24.8 µM; in the test with KM12 colon it was greater than 25 µM; in the test with SF-268 CNS, greater than 25 µM; with OVCAR-3 ovarian, greater than 25 µM. Moreover, the GI50 with TK-10 renal, in the test with OVCAR-4 ovarian, in the test on MALME-3M melanoma and in the test on CAKI-1 renal was greater than 25 µM in each case. The TGI in the test with NCI-H23 lung, in the test on SF-539 CNS, with UACC-62 melanoma, in the test on KM12 colon, in the test with SF-268 CNS and in the test with OVCAR-3 ovarian was greater than 25 µM in each case. The TGI in the test with TK-10 renal, with OVCAR-4 ovarian, in the test with MALME-3M melanoma and in the test on CAKI-1 renal was greater than 25 µM in each case.

Take `Cc1ccc(SC2C(C)(C)N(C(C)C)P2(=O)N(C(C)C)C(C)C)cc1` (stereo not given): the TGI with NCI-H23 lung, in the test on SF-539 CNS, with UACC-62 melanoma, in the test on KM12 colon, with SF-268 CNS and with OVCAR-3 ovarian was greater than 100 µM each time. Also, the TGI in the test on TK-10 renal, in the test with OVCAR-4 ovarian, in the test with MALME-3M melanoma and with CAKI-1 renal was greater than 100 µM each time.

`Nc1cccc2c1CN(C1CCC(=O)NC1=O)C2=O` (stereo not given): the GI50 with NCI-H23 lung, in the test with SF-539 CNS, in the test with UACC-62 melanoma, in the test with KM12 colon, with SF-268 CNS and in the test with OVCAR-3 ovarian was greater than 100 µM throughout. For the same compound, the GI50 in the test on TK-10 renal, in the test on OVCAR-4 ovarian, in the test on MALME-3M melanoma and with CAKI-1 renal was greater than 100 µM throughout. Also, the TGI in the test on NCI-H23 lung, in the test on SF-539 CNS, with UACC-62 melanoma, in the test with KM12 colon, with SF-268 CNS and with OVCAR-3 ovarian was greater than 100 µM in each case. Besides, the TGI in the test with TK-10 renal, in the test on OVCAR-4 ovarian, in the test with MALME-3M melanoma and in the test with CAKI-1 renal was greater than 100 µM each time.
